# Laboratory results published in ChEMBL document CHEMBL4138267, “Synthesis and SAR of 1,2,3,4-Tetrahydroisoquinoline-Based CXCR4 Antagonists” (ACS Med Chem Lett, 2018).
# Columns and labels:
# [1] = Permeability of the compound at pH 7.4 by PAMPA; format: ADME
# [2] = Permeability of the compound at pH 5.5 by PAMPA; format: ADME
permeability [1],permeability [2],Structure (SMILES)
Impermeable,Impermeable,NCCCCN(Cc1cc(Cl)ccn1)C[C@H]1Cc2ccccc2CN1
Impermeable,Impermeable,Cc1cccnc1[C@H](C)N(CCCCN)C[C@H]1Cc2ccccc2CN1
Impermeable,Impermeable,C[C@@H](c1ccccn1)N(CCCCN)C[C@H]1Cc2ccccc2CN1
Impermeable,Impermeable,Cc1cnc2c(c1)CCC[C@@H]2N(CCCCN)C[C@H]1Cc2ccccc2CN1
Impermeable,Impermeable,Cc1cccc(CN(CCCCN)C[C@H]2Cc3ccccc3CN2)n1
Impermeable,Impermeable,Cc1cccnc1CN(CCCCN)C[C@H]1Cc2ccccc2CN1
Impermeable,Impermeable,NCCCCN(Cc1ncccc1C(F)(F)F)C[C@H]1Cc2ccccc2CN1
Impermeable,Impermeable,NCCCCN(Cc1ncccc1C1CC1)C[C@H]1Cc2ccccc2CN1
Impermeable,Impermeable,NCCCCN(C[C@H]1Cc2ccccc2CN1)[C@H]1CCCc2cccnc21
Impermeable,Impermeable,NCCCCN(Cc1ncccc1F)C[C@H]1Cc2ccccc2CN1
Impermeable,Impermeable,NCCCCN(Cc1ncccc1Cl)C[C@H]1Cc2ccccc2CN1
Impermeable,Impermeable,COc1cccnc1CN(CCCCN)C[C@H]1Cc2ccccc2CN1
Impermeable,Impermeable,NCCCCN(Cc1ccccn1)C[C@H]1Cc2ccccc2CN1
Impermeable,Impermeable,C=Cc1cccnc1CN(CCCCN)C[C@H]1Cc2ccccc2CN1
Impermeable,Impermeable,NCCCCN(C[C@H]1Cc2ccccc2CN1)[C@H]1CCOc2cccnc21
Impermeable,Impermeable,Cc1ccnc(CN(CCCCN)C[C@H]2Cc3ccccc3CN2)c1

# Continued, compound first:
Structure (SMILES),permeability [1],permeability [2]
NCCCCN(Cc1ccc2ccccc2n1)C[C@H]1Cc2ccccc2CN1,Impermeable,Impermeable
Cc1ccc([C@H](C)N(CCCCN)C[C@H]2Cc3ccccc3CN2)nc1,Impermeable,Impermeable
NCCCCN(Cc1cscn1)C[C@H]1Cc2ccccc2CN1,Impermeable,Impermeable
Cc1cc(F)cnc1CN(CCCCN)C[C@H]1Cc2ccccc2CN1,Impermeable,Impermeable
NCCCCN(Cc1ccc(C(F)(F)F)cn1)C[C@H]1Cc2ccccc2CN1,Impermeable,Impermeable
Cc1cnc(CN(CCCCN)C[C@H]2Cc3ccccc3CN2)c(C)c1,Impermeable,Impermeable
NCCCCN(Cc1ccc(Cl)cn1)C[C@H]1Cc2ccccc2CN1,Impermeable,Impermeable
NCCCCN(Cc1cc2ccccc2cn1)C[C@H]1Cc2ccccc2CN1,Impermeable,Impermeable
NCCCCN(Cc1nccs1)C[C@H]1Cc2ccccc2CN1,Impermeable,Impermeable
NCCCCN(Cc1nccc2ccccc12)C[C@H]1Cc2ccccc2CN1,Impermeable,Impermeable
NCCCCN(Cc1ccc(F)cn1)C[C@H]1Cc2ccccc2CN1,Impermeable,Impermeable
Cc1ccc(CN(CCCCN)C[C@H]2Cc3ccccc3CN2)nc1,Impermeable,Impermeable
Cc1nc(CN(CCCCN)C[C@H]2Cc3ccccc3CN2)cs1,Impermeable,Impermeable
Cc1cnc(CN(CCCCN)C[C@H]2Cc3ccccc3CN2)c(F)c1,Impermeable,Impermeable
COc1ccc(CN(CCCCN)C[C@H]2Cc3ccccc3CN2)nc1,Impermeable,Impermeable
